Measurements from PubChem BioAssay (NCI).
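Grown in 96-well plates, cells were treated for 48 hours with each compound at five concentrations. Insufficient inhibition: endpoint recorded as highest concentration tested. The concentration for 50% growth inhibition is given as GI50. At the TGI there is no net growth.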

Key:
Test in all cases: DTP human tumour cell line panel, 48 h
786-0 renal = test system: 786-0 renal
A498 renal = test system: A498 renal
A549 NSCLC = test system: A549 NSCLC
ACHN renal = test system: ACHN renal
BT-549 breast = test system: BT-549 breast
CAKI-1 renal = test system: CAKI-1 renal
CCRF-CEM leukemia = test system: CCRF-CEM leukemia
COLO 205 colon = test system: COLO 205 colon
DU-145 prostate = test system: DU-145 prostate
EKVX NSCLC = test system: EKVX NSCLC
HCC-2998 colon = test system: HCC-2998 colon
HCT-116 colon = test system: HCT-116 colon
HCT-15 colon = test system: HCT-15 colon
HL-60(TB) leukemia = test system: HL-60(TB) leukemia
HOP-62 NSCLC = test system: HOP-62 NSCLC
HOP-92 NSCLC = test system: HOP-92 NSCLC
HS 578T breast = test system: HS 578T breast
HT29 colon = test system: HT29 colon
IGROV1 ovarian = test system: IGROV1 ovarian
K-562 leukemia = test system: K-562 leukemia
KM12 colon = test system: KM12 colon
LOX IMVI melanoma = test system: LOX IMVI melanoma
M14 melanoma = test system: M14 melanoma
MALME-3M melanoma = test system: MALME-3M melanoma
MCF7 breast = test system: MCF7 breast
MDA-MB-231 breast = test system: MDA-MB-231 breast
MDA-MB-435 = test system: MDA-MB-435
MDA-MB-468 breast = test system: MDA-MB-468 breast
MOLT-4 leukemia = test system: MOLT-4 leukemia
NCI-H226 lung = test system: NCI-H226 lung
NCI-H23 lung = test system: NCI-H23 lung
NCI-H460 lung = test system: NCI-H460 lung
NCI-H522 lung = test system: NCI-H522 lung
NCI/ADR-RES ovarian = test system: NCI/ADR-RES ovarian
OVCAR-3 ovarian = test system: OVCAR-3 ovarian
OVCAR-4 ovarian = test system: OVCAR-4 ovarian
OVCAR-5 ovarian = test system: OVCAR-5 ovarian
OVCAR-8 ovarian = test system: OVCAR-8 ovarian
PC-3 prostate = test system: PC-3 prostate
RPMI-8226 leukemia = test system: RPMI-8226 leukemia
RXF 393 renal = test system: RXF 393 renal
SF-268 CNS = test system: SF-268 CNS
SF-295 CNS = test system: SF-295 CNS
SF-539 CNS = test system: SF-539 CNS
SK-MEL-2 melanoma = test system: SK-MEL-2 melanoma
SK-MEL-28 melanoma = test system: SK-MEL-28 melanoma
SK-MEL-5 melanoma = test system: SK-MEL-5 melanoma
SK-OV-3 ovarian = test system: SK-OV-3 ovarian
SN12C renal = test system: SN12C renal
SNB-19 CNS = test system: SNB-19 CNS
SNB-75 CNS = test system: SNB-75 CNS
SR leukemia = test system: SR leukemia
SW-620 colon = test system: SW-620 colon
T-47D breast = test system: T-47D breast
TK-10 renal = test system: TK-10 renal
U251 CNS = test system: U251 CNS
UACC-257 melanoma = test system: UACC-257 melanoma
UACC-62 melanoma = test system: UACC-62 melanoma
UO-31 renal = test system: UO-31 renal

SMILES: COc1ccc(/C=C/c2nc3ccccc3n3c(-c4cccc([N+](=O)[O-])c4)nnc23)cc1
- GI50 (786-0 renal): 1450 nM
- TGI (786-0 renal): 2760 nM
- GI50 (A498 renal): 12400 nM
- TGI (A498 renal): 28100 nM
- GI50 (A549 NSCLC): 2650 nM
- TGI (A549 NSCLC): 11000 nM
- GI50 (ACHN renal): 1370 nM
- TGI (ACHN renal): 2660 nM
- GI50 (BT-549 breast): 1380 nM
- TGI (BT-549 breast): 2920 nM
- GI50 (CAKI-1 renal): 2470 nM
- TGI (CAKI-1 renal): 10400 nM
- GI50 (CCRF-CEM leukemia): 312 nM
- TGI (CCRF-CEM leukemia): 1150 nM
- GI50 (COLO 205 colon): 1760 nM
- TGI (COLO 205 colon): 3660 nM
- GI50 (DU-145 prostate): 1610 nM
- TGI (DU-145 prostate): 4290 nM
- GI50 (EKVX NSCLC): 3860 nM
- TGI (EKVX NSCLC): 14800 nM
- GI50 (HCC-2998 colon): 2570 nM
- TGI (HCC-2998 colon): 11300 nM
- GI50 (HCT-116 colon): 1080 nM
- TGI (HCT-116 colon): 2270 nM
- GI50 (HCT-15 colon): 948 nM
- TGI (HCT-15 colon): 2250 nM
- GI50 (HL-60(TB) leukemia): 1620 nM
- TGI (HL-60(TB) leukemia): 10900 nM
- GI50 (HOP-62 NSCLC): 5470 nM
- TGI (HOP-62 NSCLC): 18200 nM
- GI50 (HOP-92 NSCLC): 1910 nM
- TGI (HOP-92 NSCLC): 4930 nM
- GI50 (HS 578T breast): 3990 nM
- TGI (HS 578T breast): 20700 nM
- GI50 (HT29 colon): 1120 nM
- TGI (HT29 colon): 2320 nM
- GI50 (IGROV1 ovarian): 1890 nM
- TGI (IGROV1 ovarian): 3770 nM
- GI50 (K-562 leukemia): 307 nM
- TGI (K-562 leukemia): 2140 nM
- GI50 (KM12 colon): 2620 nM
- TGI (KM12 colon): 10800 nM
- GI50 (LOX IMVI melanoma): 148 nM
- TGI (LOX IMVI melanoma): 289 nM
- GI50 (M14 melanoma): 760 nM
- TGI (M14 melanoma): 2170 nM
- GI50 (MALME-3M melanoma): 581 nM
- TGI (MALME-3M melanoma): 1980 nM
- GI50 (MCF7 breast): 1830 nM
- TGI (MCF7 breast): 10100 nM
- GI50 (MDA-MB-231 breast): 1800 nM
- TGI (MDA-MB-231 breast): 4550 nM
- GI50 (MDA-MB-435): 1900 nM
- TGI (MDA-MB-435): 5650 nM
- GI50 (MDA-MB-468 breast): 1130 nM
- TGI (MDA-MB-468 breast): 2850 nM
- GI50 (MOLT-4 leukemia): 1210 nM
- TGI (MOLT-4 leukemia): 4100 nM
- GI50 (NCI-H226 lung): 626 nM
- TGI (NCI-H226 lung): 2490 nM
- GI50 (NCI-H23 lung): 1510 nM
- TGI (NCI-H23 lung): 3010 nM
- GI50 (NCI-H460 lung): 1690 nM
- TGI (NCI-H460 lung): 4260 nM
- GI50 (NCI-H522 lung): 120 nM
- TGI (NCI-H522 lung): 258 nM
- GI50 (NCI/ADR-RES ovarian): 2100 nM
- TGI (NCI/ADR-RES ovarian): 6930 nM
- GI50 (OVCAR-3 ovarian): 1270 nM
- TGI (OVCAR-3 ovarian): 2610 nM
- GI50 (OVCAR-4 ovarian): 1680 nM
- TGI (OVCAR-4 ovarian): 5320 nM
- GI50 (OVCAR-5 ovarian): 1770 nM
- TGI (OVCAR-5 ovarian): 3610 nM
- GI50 (OVCAR-8 ovarian): 1750 nM
- TGI (OVCAR-8 ovarian): 4800 nM
- GI50 (PC-3 prostate): 3010 nM
- TGI (PC-3 prostate): 14500 nM
- GI50 (RPMI-8226 leukemia): 1440 nM
- TGI (RPMI-8226 leukemia): 4030 nM
- GI50 (RXF 393 renal): 1240 nM
- TGI (RXF 393 renal): 2550 nM
- GI50 (SF-268 CNS): 2770 nM
- TGI (SF-268 CNS): 10200 nM
- GI50 (SF-295 CNS): 9610 nM
- TGI (SF-295 CNS): 21400 nM
- GI50 (SF-539 CNS): 1440 nM
- TGI (SF-539 CNS): 2750 nM
- GI50 (SK-MEL-2 melanoma): 2630 nM
- TGI (SK-MEL-2 melanoma): 9090 nM
- GI50 (SK-MEL-28 melanoma): 2190 nM
- TGI (SK-MEL-28 melanoma): 4940 nM
- GI50 (SK-MEL-5 melanoma): 2060 nM
- TGI (SK-MEL-5 melanoma): 5380 nM
- GI50 (SK-OV-3 ovarian): 5220 nM
- TGI (SK-OV-3 ovarian): 17600 nM
- GI50 (SN12C renal): 1140 nM
- TGI (SN12C renal): 2360 nM
- GI50 (SNB-19 CNS): 5840 nM
- TGI (SNB-19 CNS): 18800 nM
- GI50 (SNB-75 CNS): 4120 nM
- TGI (SNB-75 CNS): 15900 nM
- GI50 (SR leukemia): 247 nM
- TGI (SR leukemia): 1360 nM
- GI50 (SW-620 colon): 631 nM
- TGI (SW-620 colon): 1870 nM
- GI50 (T-47D breast): 3760 nM
- TGI (T-47D breast): 16100 nM
- GI50 (TK-10 renal): 2870 nM
- TGI (TK-10 renal): 9900 nM
- GI50 (U251 CNS): 1520 nM
- TGI (U251 CNS): 3300 nM
- GI50 (UACC-257 melanoma): 3650 nM
- TGI (UACC-257 melanoma): 15000 nM
- GI50 (UACC-62 melanoma): 1700 nM
- TGI (UACC-62 melanoma): 4300 nM
- GI50 (UO-31 renal): 2000 nM
- TGI (UO-31 renal): 8800 nM
